From patent US4440784A, “Anti-inflammatory, analgesic, and antipyretic pharmaceutical composition” (Kanegafuchi Chemical Industry Company, Ltd., priority 1981, dated 1984)
Where two headings read alike, the source gives them in different places.

Tests used:
[1] = tested on: acetic acid-induced writhing in mice; test: acetic acid-induced writhing in mice (analgesic activity); format: in vivo, male ddY strain mice; conditions: po; mouse, p.o., 100 mg/kg, 1 hour before acetic acid i.p.; read-out: Inhibition (writhing)
Procedure: An analgesic activity was evaluated by the method of acetic acid-induced writhing in mice [R. Koster et al., Federation Proc., 18, 412 (1959)]. Ten male ddY strain mice weighing 20~25 g were used in each group. Test compounds suspended in 2.5% acacia were administered p.o. to the mice. One hour later, the mice were injected i.p. with 0.6% acetic acid in a volume of 0.1 ml/10 g body weight. The number of writhes in each of mice was counted for 20 minutes after the injection of the acetic acid. Percent inhibition was calculated by the following equation. [formula]

[2] = tested on: paper disk-induced granuloma in rats; test: paper disk-induced granuloma in rats (sub-chronic anti-inflammatory activity); format: in vivo, male Wistar strain rats; conditions: rat, p.o. once daily for 7 days
Procedure: Six male Wistar strain rats weighing 150~180 g were used in each group. Each paper disk (29±1 mg) was implanted s.c. into the bilateral area of the scapula of rats under anesthesia with amobarbital sodium. […] The rats were killed on day 7, at which time the paper disks with surrounding granulomatous tissues were removed and dried to constant weight overnight, and weighed. Percent inhibition was calculated by the following equation. [formula]

[3] = tested on: carrageenan-induced paw edema in rats; test: carrageenan-induced paw edema in rats (acute anti-inflammatory activity); format: in vivo, male Wistar strain rats; conditions: po, rat, p.o., 50 mg/kg
Procedure: (1) An acute anti-inflammatory activity was evaluated by the method of carrageenan-induced paw edema in rats [C. A. Winter et al., Proc. Soc. […] Six male Wistar strain rats weighing 150~180 g were used in each group. […] The volume of each paw edema was measured 3 and 5 hours after the injection of carrageenan. Percent edema inhibition was calculated by the following equation. [formula]

[4] = tested on: adjuvant-induced arthritis in rats; test: adjuvant-induced arthritis in rats (chronic anti-inflammatory activity); format: in vivo, male Sprague-Dawley strain rats; conditions: rat, p.o. once daily
Procedure: (3) A chronic anti-inflammatory activity was evaluated by the method of adjuvant-induced arthritis in rats [D. T. Walz et al., J. Pharmacol. and Exp. Ther., 178, 223 (1971)]. Eight male Sprague-Dawley strain rats weighing 190~230 g were used in each group. Into the left hind paw of rats was injected i.d. 0.5 mg of Mycobacterium butyricum suspended in 0.05 ml of paraffin oil. Test compounds suspended in 2.5% acacia were administered p.o. once daily for 21 days, starting on the day of the injection of an adjuvant (day 0). Paw volumes of adjuvant-injected and uninjected feet were measured on day 14 and on day 21. Percent inhibition was calculated by the following equation. [formula]

[5] = tested on: yeast-induced fever in rats; test: yeast-induced fever in rats (antipyretic activity); format: in vivo, male Wistar strain rats; conditions: po, rat, p.o., 100 mg/kg
Procedure: Five male Wistar strain rats weighing 150~180 g were used in each group. A 20% Baker's yeast suspension in 0.9% NaCl was injected s.c. into the dorsal region of rats in a volume of 1 ml/100 g body weight. […] The rectal temperature was determined with a thermometer, 1, 3 and 5 hours after the administration of test compounds. Percent inhibition was calculated by the following equation. [formula]

[6] = toxicity test in mice (LD50); conditions: in vivo, po; mouse, 14 days observation
Procedure: Female ICR strain mice weighing 20~25 g in groups of six each were used for toxicity tests. Test compounds suspended in 2.5% acacia were administered p.o. to the mice. The animals were observed daily for 14 days after the administration. The LD50 values were estimated from mortality (No. of dead mice/No. of mice used).

With CC(C)(C)c1cc(C=C(C#N)C(N)=O)cc(C(C)(C)C)c1O [Compound IX, β-Carbamoyl-β-cyano-3,5-di-tert-butyl-4-hydroxystyrene] the inhibition in vivo at 100 mg/kg [1] was 50.7%, the “Inhibition (granuloma)” value ([2]; 25 mg/kg/day) was 27.0% and the “Inhibition (granuloma)” value ([2]; 100 mg/kg/day) was 25.0%. For the same compound, the inhibition in vivo at 50 mg/kg ([3]; 3 hours after carrageenan, read-out: Percent edema inhibition, 3 hours) was 40.8%, the inhibition in vivo at 50 mg/kg ([3]; 5 hours after carrageenan, read-out: Percent edema inhibition, 5 hours) was 34.2% and the “Inhibition, injected foot, Day 14” value ([4]; 12.5 mg/kg/day) was 33.3%. For the same compound, the “Inhibition, injected foot, Day 21” value ([4]; 12.5 mg/kg/day) was 46.1%, the “Inhibition, uninjected foot, Day 14” value ([4]; 12.5 mg/kg/day) was 70.3% and the “Inhibition, uninjected foot, Day 21” value ([4]; 12.5 mg/kg/day) was 42.6%. For the same compound, the “Inhibition, injected foot, Day 14” value ([4]; 50 mg/kg/day) was 31.6%, the “Inhibition, injected foot, Day 21” value ([4]; 50 mg/kg/day) was 29.6% and the “Inhibition, uninjected foot, Day 14” value ([4]; 50 mg/kg/day) was 40.5%. For the same compound, the “Inhibition, uninjected foot, Day 21” value ([4]; 50 mg/kg/day) was 42.6%, the inhibition in vivo at 100 mg/kg ([5]; 1 hour after administration, read-out: Inhibition (fever), 1 hour) was 35.4% and the inhibition in vivo at 100 mg/kg ([5]; 3 hours after administration, read-out: Inhibition (fever), 3 hours) was 77.3%. The inhibition in vivo at 100 mg/kg ([5]; 5 hours after administration, read-out: Inhibition (fever), 5 hours) was 87% and the LD50 at 336 h [6] was over 1000 mg/kg.
